Values after ≈ are worked out from the molar mass of the structure shown.
Columns and labels:
[1] = system: D.T.H. response in mice immunized with sheep red blood cell (SRBC); assay: Delayed Type Hypersensitivity (D.T.H.) footpad test in mice immunized with SRBC, Example 2; assay type: in vivo, mouse; conditions: CDF1 mice, control = 100
Procedure: This Example describes the tests for evaluation of the immunopotentiating activity of the new compound of this invention.
A suspension of 10^8 sheep red blood cells in 0.05 ml of physiological saline was subcutaneously injected at the time of immunization into the right hind footpad of each CDF1 -mouse under test (female, 8 weeks-aged, 5 mice in each group) to establish D.T.H. Simultaneously to the immunization, […] prepared by dissolving the test compound in physiological saline and then filtering the solution by a micropore filter (pore diameter: 0.22 micrometers). Four days later, 10^8 SRBC were subcutaneously injected into the left […] footpad of each test mouse for elicitation of the D.T.H. response. 24 Hours after the elicitating injection, the increased thickness of the left hind footpad was measured with calipers to estimate the degree of swelling in the footpad. The swelling degree is expressed in term of the values calculated by the equation: [formula] The degree of swelling serves to evaluate the degree of cell-mediated immunity involved. For comparison, a suspension of bestatin dispersed in water was tested in the same way as above.

[2] = target: T1, aminopeptidase B (Rattus norvegicus, UniProt O09175); assay: aminopeptidase B-inhibiting activity (modified Hopsu method, arginine β-naphthylamide substrate); assay type: biochemical; conditions: 37° C., pH 7.0, 30 minutes
T1 sequence (O09175 1-650): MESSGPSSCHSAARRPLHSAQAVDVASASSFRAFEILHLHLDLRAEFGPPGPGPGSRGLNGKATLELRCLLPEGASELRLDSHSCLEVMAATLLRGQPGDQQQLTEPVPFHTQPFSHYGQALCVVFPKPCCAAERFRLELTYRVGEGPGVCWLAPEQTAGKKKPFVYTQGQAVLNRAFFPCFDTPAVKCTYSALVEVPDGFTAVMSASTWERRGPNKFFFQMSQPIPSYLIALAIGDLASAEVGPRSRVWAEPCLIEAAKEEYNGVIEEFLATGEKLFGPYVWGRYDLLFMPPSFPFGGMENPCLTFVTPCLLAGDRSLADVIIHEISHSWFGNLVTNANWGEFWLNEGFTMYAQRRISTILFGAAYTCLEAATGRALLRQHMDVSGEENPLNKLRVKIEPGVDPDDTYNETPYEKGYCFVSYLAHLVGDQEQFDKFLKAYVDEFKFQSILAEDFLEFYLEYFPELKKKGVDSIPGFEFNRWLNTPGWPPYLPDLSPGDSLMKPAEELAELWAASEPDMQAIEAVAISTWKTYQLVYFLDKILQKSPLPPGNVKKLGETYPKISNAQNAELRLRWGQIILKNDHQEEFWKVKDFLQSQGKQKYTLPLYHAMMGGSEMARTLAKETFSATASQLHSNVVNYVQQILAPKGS
Procedure: The aminopeptidase B-inhibiting activity was determined according to a modification of the method of V. K. Hopsu et al. described in the "Archives of Biochemistry and Biophysics" Vol. 114, 557 (1966). Thus, a mixture of 0.8 ml of 0.1 mM of (S)-arginine β-naphthylamide and 1.0 ml of 0.1M Tris-hydrochloride buffer (pH 7.0) was admixed with 0.7 ml of 0.1M Tris-hydrochloride buffer (pH 7.0) containing the test compound and then heated at 37° C. for 3 minutes. […] After the reaction at 37° C. for 30 minutes, the reaction solution was admixed with 0.6 ml of 0.1M acetate buffer (pH 4.2) containing 1.0 mg/ml of diazonium salt of o-aminoazotoluene (Garnet GBC) and 1.0% of a surfactant "Tween" 20 (a registered trademark) to stop the enzymatic reaction and then allowed to stand at ambient temperature for 15 minutes. After this, absorbance (a) at 525 nm of the reaction solution was measured by spectrophotometer. For the control, the above procedure was repeated without the test compound and the adsorbence (b) was measured. Percentages for inhibition to aminopeptidase B were calculated according to the equation: [formula] Inhibition percentages at various concentrations of the test compound were measured, and from the values of inhibition percentages measured 50% Inhibition Concentration (IC50) was evaluated.

[3] = system: D.T.H. response in tumor-bearing (Sarcoma 180) mice immunized with SRBC; assay: D.T.H. footpad test in Sarcoma 180 tumor-bearing mice immunized with SRBC, Example 23; assay type: in vivo, mouse; conditions: Sarcoma 180-bearing CDF1 mice
Procedure: This Example describes the tests for evaluation of the immunopotentiating activity of the new compound of this invention. Thus, the effect of the new compound of cell-mediated immunity was tested according to a known technique of Delayed Type Hypersensitivity (D.T.H.) (see P. H. Lagrange et al. "J. Exp. Med." Vol. 139, 1529-1539 (1974)) using tumor-bearing mice which had been immunized with sheep red blood cell (SRBC) as antigen as inoculated into the footpad of the mice.
Thus, a suspension of 10^8 sheep red blood cells in 0.05 ml of physiological saline was subcutaneously injected at the time of immunization into the right hind footpad of each CDF1 -mouse under test (female, 8 weeks-aged, 6 mice in each group) to which 10^6 cells of the tumor cell, Sarcoma 180 had been inoculated intraperitoneally.
On the same day as the day when the immunization with SRBC was effected, as well as on the subsequent, consecutive four days, the mouse under test were then treated by intraperitoneal administration of 0.05 mg/kg, 0.5 mg/kg or 5 mg/kg per day of the test compound as the solution which was prepared by dissolving the test compound in physiological saline and then filtering the solution by a micropore filter (pore diameter: 0.22 micrometers). Two days after the immunization with SRBC, 10^8 SRBC were subcutaneously injected into the left hind footpad of each test mouse for elicitation of the D.T.H. responde. 24 Hours after the elicitating injection, the increased thickness of the left hind footpad was measured with calipers to estimate the degree of swelling in the footpad. The swelling degree is expressed in term of the values calculated by the equation: [formula] The degree of swelling serves to evaluate the degree of cell-mediated immunity involved. For comparison, a suspension of bestatin dispersed in water was tested in the same way as above.

[4] = system: ICR-strain mice; assay: acute toxicity, intraperitoneal, ICR-strain mice; assay type: in vivo, mouse; conditions: dosage of 100 mg/kg
Description: In order to estimate the acute toxicity of the compound of the formula (VIII) or (IIId), some of the test compound was intraperitoneally given to ICR-strain mice (in groups each consisting of 6 mice, male, 5 weeks-aged, average body weight 20 g.), when all the tested mice tolerated intraperitoneal administration of (2S,3R)-APHA; (2S)-2-N-[(2'S,3'R)-3'-amino-2'-hydroxy-4'-phenyl-butanoyl]amino-4-methyl- pentanol; (2S)-2-N-[(2'S,3'R)-3'-amino-2'-hydroxy-4'-phenylbutanoyl-(S)-leucyl]amino-4-methyl-pentanol; (2S,3R)-3-amino-2-hydroxy-4-phenylbutanoyl-(S)-leucyl-(S)-leucine; (2S,3R)-3-amino-2-hydroxy-4-phenyl-butanoyl-(S)-leucyl-(S)-arginine; (2S,3R)-3-amino-2-hydroxy-4-phenylbutanoyl-(S)-leucyl-(S)-asparagine; (2R,3R)-3-amino-2-hydroxy-4-phenylbutanoyl-(S)-leucyl-(R)-asparagine; and (2S,3R)-3-amino-2-hydroxy-4-phenylbutanoyl-(S)-leucyl-(R)-arginine at a dosage of 100 mg/kg.

[5] = solubility in water
[6] = system: D.T.H. response in mice immunized with SRBC as antigen; assay: D.T.H. footpad test in mice immunized with SRBC, Examples 3-6 (dosages per mouse); assay type: in vivo; conditions: for Degree of swelling: control = 100
Procedure: The effect of (2S,3R)-AHPA on cell-mediated immunity was tested in the same way in Example 2, namely according to the D.T.H. technique using mice immunized with sheep red blood cell as antigen. Thus, a suspension of 10^8 sheep red blood cells in 0.05 ml of physiological saline were subcutaneously injected at the time of immunization into the right hind footpad of each CDF1 -mouse under test (female, 8 weeks-aged, 5 mice in each group) to establish D.T.H. […] The degree of swelling was evaluated. By way of comparison, bestatin was tested in the same way as above. […] The effect of (2S,3R)-AHPA on the D.T.H. response was estimated in the same manner as in the above procedure (A) of Example 3 by orally administering 1 mcg/mouse, 0.1 mcg/mouse or 0.01 mcg/mouse of (2S,3R)-AHPA to each mouse under test. […] The effect of the mode of administering (2S,3R)-AHPA on the D.T.H. response was estimated in the same manner as in the procedure (A) of Example 3, except that the test compound (as aqueous solution) was injected intraperitoneally in stead of being given orally.

Compound | Degree of swelling ([1]; oral 0.5 mg/kg at immunization) | IC50 [2] | Degree of swelling ([3]; intraperitoneal 0.5 mg/kg/day) | acute toxicity: tolerance of intraperitoneal administration [4] | solubility in water [5] | Degree of swelling ([3]; intraperitoneal 5 mg/kg/day) | further results
CC(C)C[C@H](NC(=O)[C@@H](O)[C@H](N)Cc1ccccc1)C(=O)N[C@H](CC(N)=O)C(=O)O [Compound No. 12, (2S,3R)-3-amino-2-hydroxy-4-phenylbutanoyl-(S)-leucyl-(R)-asparagine] | 133% | 4.7 µg/mL (≈ 11.1 µM) | 157% | tolerated |  |  | 
CC(C)C[C@H](NC(=O)[C@@H](O)[C@H](N)Cc1ccccc1)C(=O)O [Bestatin, (2S, 3R)-3-amino-2-hydroxy-4-phenylbutanoyl-(S)-leucine] | 140-150% | 0.03 µg/mL (≈ 0.0973 µM) |  |  | sparingly soluble in water | 130% | Degree of swelling ([1]; oral 0.05 mg/kg at immunization): 120-130%; Increase in thickness of footpad (± S.D.) ([6]; Table 3, oral 0.1 mcg/mouse): 9.3 ± 2.70 × 0.1 mm; Degree of swelling ([6]; Table 3, oral 0.1 mcg/mouse): 118%; Increase in thickness of footpad (± S.D.) ([6]; Table 3, oral 1 mcg/mouse): 10.3 ± 0.96 × 0.1 mm; Degree of swelling ([6]; Table 3, oral 1 mcg/mouse): 130%; Increase in thickness of footpad (± S.D.) ([6]; Table 3, oral 10 mcg/mouse): 12.0 ± 1.25 × 0.1 mm; Degree of swelling ([6]; Table 3, oral 10 mcg/mouse): 152%; Increase in thickness of footpad (± S.D.) ([6]; Table 4, oral 1 mcg/mouse): 10.8 ± 1.08 × 0.1 mm; Degree of swelling ([6]; Table 4, oral 1 mcg/mouse): 133%; Degree of swelling, Intraperitoneal injection ([6]; Table 5, intraperitoneal 1 mcg/mouse): 128%; Degree of swelling, Oral administration ([6]; Table 5, oral 1 mcg/mouse): 133%; Increase in thickness of footpad (± S.D.) ([6]; Table 7, oral 1 mcg/mouse): 11.6 ± 0.91 × 0.1 mm; Degree of swelling ([6]; Table 7, oral 1 mcg/mouse): 133%; Increase in thickness of footpad (+ S.D.) ([6]; Table 8, oral 1 mcg/mouse): 10.3 ± 1.36 × 0.1 mm; Degree of swelling ([6]; Table 8, oral 1 mcg/mouse): 121%
CC(C)C[C@H](NC(=O)[C@@H](O)[C@H](N)Cc1ccccc1)C(=O)N[C@H](CCCNC(=N)N)C(=O)O [Compound No. 10] | 134% | 0.39 µg/mL (≈ 0.839 µM) | 155% | tolerated |  |  | 
CC(C)C[C@H](NC(=O)[C@@H](O)[C@H](N)Cc1ccccc1)C(=O)N[C@@H](CCCNC(=N)N)C(=O)O [Compound No. 5, (2S,3R)-3-amino-2-hydroxy-4-phenyl-butanoyl-(S)-leucyl-(S)-arginine] | 135% | 0.11 µg/mL (≈ 0.237 µM) |  |  | soluble in water | 147% | 
CC(C)C[C@H](NC(=O)[C@@H](O)[C@H](N)Cc1ccccc1)C(=O)N[C@@H](CC(N)=O)C(=O)O [Compound No. 11, (2S,3R)-3-amino-2-hydroxy-4-phenylbutanoyl-(S)-leucyl-(S)-asparagine] | 128% | 22.4 µg/mL (≈ 53 µM) |  |  |  |  | Degree of swelling ([3]; intraperitoneal 0.05 mg/kg/day): 155%
CC(C)C[C@H](NC(=O)[C@H](CC(C)C)NC(=O)[C@@H](O)[C@H](N)Cc1ccccc1)C(=O)O [Compound No. 6, (2S,3R)-3-amino-2-hydroxy-4-phenylbutanoyl-(S)-leucyl-(S)-leucine] | 120% | 0.20 µg/mL (≈ 0.474 µM) | 152% |  |  |  | 

From patent US4473554A, “Bestatin-related compounds as immunopotentiator” (Zaidan Hojin Biseibutsu Kagaku Kenkyu Kai, priority 1982, dated 1984)
